The values that follow come from US11014934B2, “Antiseptic drug” (AO “TATKHIMFARMPREPARATY”, priority 2017, dated 2021).

Experiment [1] deals with Candida albicans RCPF Y-401/NCTC-885-653. As to the kind of experiment: Antifungal activity, 2-fold serial dilutions in Saburo glucose broth. The experiment is classed as cell-based, C. albicans. Conditions: for MIC: Candida albicans. The protocol: (§1) The study of the antifungal activity of compound I in vitro was carried out in accordance with [Metodicheskiye rekomendatsii No 2. Mikologicheskoye issledovaniye ob″yektov okruzhayushchey sredy i opredeleniye protivogribkovoy aktivnosti razlichnykh veshchestv.—GOU DPO SPbMAPO NII meditsinskoy mikologii im. P. N. Kashkina, GBOU VPO SZGMU im. I. I. Mechnikova Minzdrava. SPb.: Izd. Dom SPbMAPO.—2008.—S. 16. Methodological recommendations No 2. Mycological examination of environmental objects and determination of antifungal activity of various substances.—State Educational Institution of St. Petersburg Medical Academy of Postgraduate Education with Scientific Research Institute of Medical Mycology named after P. N. Kashkin, State Educational Institution of Higher Professional Education North-West State Medical University named after I. I. Mechnikov, Ministry of Health. St. Petersburg.:: Publishing House SPbMAPO.—2008.—P. 16].
(§2) The study of the antifungal activity of substances in vitro was carried out in a liquid nutrient medium (Saburo glucose broth) in biological tubes by the method of 2-fold serial dilutions. In test tubes, three parallel series of dilutions of the test substance were prepared in the following way.
Saburo's liquid broth was sterilely poured in 3 ml into each tube; 4.5 ml was poured into the first tube of the row. A total of 14 tubes were used in a row; of which the last was a control one. 400 mg of the test substance was taken as a standard sample and dissolved in 10 ml of distilled water. Thus, the initial dilution contained the test substance at a concentration of 40000 ug/ml. Then 0.5 ml of this dilution was introduced into the first test tube of the series (with 4.5 ml of medium), thereby diluting the concentration of the substance by another 10 times. Therefore, the first tube of the series contained 4000 μg/ml of the test substance. Then, 3 ml of the solution was taken from the first tube and transferred to the second tube, thoroughly purged, then 3 ml of the solution were taken again from the second tube and transferred to the third tube, etc.; from the penultimate tube, 3 ml was poured. […] The growth of cultures was initially assessed visually, comparing the growth of microorganisms in the presence of test compounds with the growth of culture without them. […] The first lowest concentration of the substance (from a series of consecutive dilutions), where the growth of fungi was suppressed or not visually determined, was considered the minimum inhibitory concentration (MIC).
(§3) For the preparation of inoculum, were respectively used pure (2-5) days cultures of yeast and mycelial fungi, grown on Saburo's dense nutrient broth. […] The inoculum was used within 15 minutes after preparation; the purity of the fungal strains was monitored before each experiment. […]

Experiment [2] has as its system Rhizopus oryzae RCPF F-1537/1722. The description is as above. The experiment is classed as cell-based, Rh. oryzae. Conditions: for MIC: read-out: The value of the MIC. How it is done: as §1, §2
Saburo's liquid broth was sterilely poured in 3 ml into each tube; 4.5 ml was poured into the first tube of the row. A total of 14 tubes were used in a row; of which the last was a control one. […] The growth of cultures was initially assessed visually, comparing the growth of microorganisms in the presence of test compounds with the growth of culture without them. […] The first lowest concentration of the substance (from a series of consecutive dilutions), where the growth of fungi was suppressed or not visually determined, was considered the minimum inhibitory concentration (MIC).
as §3

The subject of experiment [3] is Klebsiella spp. 10. As to the kind of experiment: MIC, serial dilutions in Müller-Hinton broth. The experiment is classed as cell-based. The protocol:
A comparative assessment of the spectrum of antibacterial action was carried out on archival and clinical strains of gram-positive and gram-negative microorganisms in accordance with the [Opredeleniye chuvstvitel'nosti mikroorganizmov k antibakterial'nym preparatam (Metodicheskiye ukazaniya MUK 4.2.1890-04). Utverzhdeny i vvedeny v deystviye Glavnym gosudarstvennym sanitarnym vrachom Rossiyskoy Federatsii G. G. Onishchenko 04.03.2004 g. Determination of the sensitivity of microorganisms to antibacterial drugs (Guidelines MUK 4.2.1890-04). Approved and put into effect by the Chief State Sanitary Doctor of the Russian Federation G. G. Onishchenko on 4 Mar. 2004].
The value of the minimum inhibitory concentration (MIC) was determined by the method of serial dilutions on Müller-Hinton broth using 96-well sterile plates. Two-fold dilutions of the test substances in a nutrient medium were prepared. The final concentrations were 1-128 ug/ml. The growth of cultures was assessed visually, comparing the growth of microorganisms in the presence of test compounds with the growth of culture without them. […] The first lowest concentration of the studied substance (from a series of consecutive dilutions), where bacterial growth is not visually determined, is considered to be the minimum inhibitory concentration (MIC). MIC was determined by the method of serial dilutions in broth with increment=2, so the differences of neighboring dilutions are not considered to be significant. In each experience there is a positive (broth with growing culture) and a negative (broth without growing culture) control.
To determine the MIC, 10 μl of culture medium was taken from those wells in which growth was not observed, and inoculation was performed on a dense Müller-Hinton broth. For the preparation of the inoculum, a pure, daily culture of gram-positive and gram-negative microorganisms grown on a dense nutrient medium was used. Nutrient medium is Müller-Hinton broth, which was prepared from dry media (Müller-Hinton broth, Acumedia, Baltimore), cultivation was carried out on agarized Müller-Hinton broth, including an additional 2% agar. The media were autoclaved at 121° C. for 15 minutes. In a sterile isotonic solution of sodium chloride, a suspension of microorganisms was prepared, adjusting the inoculum density to 0.5 according to the McFarland standard (1.5·10^8 CFU/ml). Then, the resulting inoculum was diluted to a concentration of 10^7 CFU/ml with Müller-Hinton broth. The inoculum was used within 15 minutes after preparation; the purity of the bacterial strains was monitored before each experiment.
100 μl of Müller-Hinton broth was added to the wells of each plate; The tested substance was introduced into the first well at a concentration of 128 μg/ml in a volume of 100 μl and its concentration was adjusted to 0.5 μg/ml by consecutive two-fold dilution. Then, the prepared inoculum (100 μI) was added to each well, thereby diluting twice the concentration of the studied compounds. […] In addition, the purity of nutrient media and solvents was monitored. The plates were incubated in a thermostat at 37° C. for 24 hours. The growth of cultures was assessed visually, comparing the growth of microorganisms in the presence of test compounds with the growth of culture without them.
For the MIC was taken the minimum concentration of the studied compounds, providing complete suppression of the visible growth of the studied strains of microorganisms. The maximum value obtained in three independent experiments was taken as the MIC of the compound.

The mark [4] stands for this setting: C. albicans RCPF Y-401/NCTC-885-653.

Like-named read-outs stand apart in the source and are kept apart here. Where only a bound is given, the exact number is not on record here.

Consider `CCCCCCCCCCCC[N+](C)(C)Cc1cnc(C[N+](C)(C)CCCCCCCCCCCC)c2c1COC(CC)O2` (stereo not shown) [Compound I, 5,8-(Bis(methylene (N, N-dimethyl-N-dodecylammonium))-2-ethyl-4H-[1,3]dioxino [4,5-c]pyridiniumdichloride], for which the MIC in experiment [1] (NCTC885, C. albicans RCPF Y-401/NCTC-885-653, read-out: The value of the MIC) stood at 62.5 µg/mL; in experiment [2] (Rh. nigricans RCPFF-l537/1722), 62.5 µg/mL; in experiment [3] (Klebsiella spp. 10, inoculum 10^7 CFU/ml, read-out: MIC), 8 µg/mL.

As for `CCCCCCCCCCCCCC(=O)NCCC[N+](C)(C)Cc1ccccc1.O.[Cl-]` [Miramistin, benzyldimethyl [3-(myristoylamino)propyl]-ammonium chloride monohydrate], the “The value of the MIC” value in experiment [1] (setting [4]) was “inactive”. Besides, the MIC was > 500 µg/mL in experiment [1] (NCTC885, read-out: The value of the MIC); 62.5 µg/mL in experiment [2]; 64 µg/mL in experiment [3] (Klebsiella, SPP.10).

With “alkyldimethyl(phenylmethyl) ammonium chloride [Benzalconium chloride]”, the “The value of the MIC” value turned out to be 7.8 µg/mL in experiment [1] (setting [4]) and 15.6 µg/mL in experiment [2] (Rh. nigricans RCPFF-l537/1722). The MIC in experiment [3] (Klebsiella spp. 10, inoculum 10^7 CFU/ml) stood at 1 µg/mL.

What is called MIC is the least concentration at which growth counts as inhibited.
